What was measured:
KYSE-410 = KYSE-410 (esophagus) xenograft model; type: in vivo, mouse
Description: (§1) For xenograft models of H1373, HCC44, MiaPaca-2, SW1463, SW837, KYSE-410 and UM-UC-3, typically 5-10×10^6 cells in a 1:1 matrigel mix (0.2 mL total volume) are implanted by subcutaneous injection in hind leg of nude mice. […] Treatment is initiated with oral administration (gavage) of testing compound or vehicle (20% captisol, 25 mM phosphate, pH2.0) in 0.2 mL volume when tumor size reaches approximately 200-300 mg. Tumor growth and body weight are monitored over time to evaluate efficacy and signs of toxicity. For EL3187 PDX model, frozen vials containing tumor fragments are thawed at 37° C. in a water bath. The tumor fragments are transferred to 50 mL Falcon tube and the ice cold DMEM medium is slowly added into the tube to a total volume of 35 mL. Then the tumor fragments are centrifuged at 130×g for 2 minutes at 4° C. and supernatant is aspirated. This washing step is repeated twice and the tumor fragments are resuspended in 10 mL DMEM for implantation into athymic nude-Foxn1nu mice (Envigo RMS, Inc., Mount Comfort, Indiana). Once tumor volumes reach 800 to 1000 mm^3, animals are sacrificed and tumors are harvested using aseptic technique. Fresh tumors are cut into 10 to 15 mm^3 fragments and placed into cold Gibco hibernate medium. The tumor fragments are subcutaneously implanted into animals with a 10 g trochar needle. When tumor size reaches 200 to 300 mm^3, the animals are randomized for compound treatment.
(§2) Among models listed in Table 2, EL3187 is a patient-derived xenograft (PDX) model, and all other are tumor xenograft models.

HCC44 = HCC44 (lung) xenograft model; type: in vivo, mouse
Description: as §1, §2

[1] = NCT04956640 Phase 1b Cohort C2 (with cetuximab) safety: treatment-emergent adverse events
Description: (§3) A “DLT” is defined as any of the treatment-emergent adverse event (TEAEs), as defined by the National Cancer Institute's Common Terminology Criteria for Adverse Events, version 5.0 (NCI CTCAE v5.0), deemed clinically significant and occurring during the first 21 days of study drug per dose level per patient, unless the adverse event (AE) can be clearly related to the patient's underlying disease, other medical condition, or concomitant medications including any AEs attributed by the Investigator to the combination agent alone. A TEAE is defined as an AE that starts or worsens on or after the date of the first dose of study drug (for example on Study Day 1) through 28 days (+14 days window) after the date of the last dose of study drug or the first date starting new anticancer therapy, whichever is earlier. A Serious TEAE is defined as an TEAE that is grade 3 or higher based on severity grade assignment as defined by the National Cancer Institute's Common Terminology Criteria for Adverse Events, version 5.0 (NCI CTCAE v5.0). A Fatal TEAE is defined as an TEAE that is grade 5 based on severity grade assignment as defined by the National Cancer Institute's Common Terminology Criteria for Adverse Events, version 5.0 (NCI CTCAE v5.0). […]

[2] = test system: KRAS G12C-mutant advanced solid tumors; test: NCT04956640 Phase 1a, Phase 1b Cohort B4 and Cohort C2 pooled statements
Description: (§4) NCT04956640 includes Phase 1a dose escalation (Part A of NCT04956640, see Table 3) followed by a Phase 1b dose expansion (Parts B to E of NCT04956640, see Table 4). […] Phase 1b dose expansion will include 12 cohorts (See Table 4) to further evaluate safety and clinical activity.

MiaPaca-2 = MiaPaca-2 (pancreas) xenograft model; type: in vivo, mouse
Description: as §1, §2

[3] = NCT04956640 Phase 1a monotherapy safety: treatment-emergent adverse events; conditions: in vivo
Description: as §3

SW1463 = SW1463 (CRC) xenograft model; type: in vivo, mouse
Description: as §1, §2

H358 lung tumor cells = test: Anti-tumor growth activity in lung cancer H358 xenograft mouse model; type: in vivo
Description: H358 lung tumor cells (10×10^6) are implanted by subcutaneous injection in hind leg of nude female mice (Taconic Biosciences). A total of 4 mice in each group are used for the efficacy study. Treatment is initiated with oral administration (gavage) of the test compound or vehicle (20% Captisol®, 25 mM phosphate, pH 2.0 in 0.2 mL volume) once or twice daily for 28 days when the tumor size reaches approximately 300 mg. Tumor growth and body weight are monitored over time to evaluate efficacy and signs of toxicity.

H1373 = H1373 (lung) xenograft model; type: in vivo, mouse
Description: as §1, §2

UM-UC-3 = UM-UC-3 (bladder) xenograft model; type: in vivo, mouse
Description: as §1, §2

[4] = Description: A “DLT” is defined as any of the treatment-emergent adverse event (TEAEs), as defined by the National Cancer Institute's Common Terminology Criteria for Adverse Events, version 5.0 (NCI CTCAE v5.0), deemed clinically significant and occurring during the first 21 days of study drug per dose level per patient, unless the adverse event (AE) can be clearly related to the patient's underlying disease, other medical condition, or concomitant medications including any AEs attributed by the Investigator to the combination agent alone. A TEAE is defined as an AE that starts or worsens on or after the date of the first dose of study drug (for example on Study Day 1) through 28 days (+14 days window) after the date of the last dose of study drug or the first date starting new anticancer therapy, whichever is earlier. A Serious TEAE is defined as an TEAE that is grade 3 or higher based on severity grade assignment as defined by the National Cancer Institute's Common Terminology Criteria for Adverse Events, version 5.0 (NCI CTCAE v5.0). A Fatal TEAE is defined as an TEAE that is grade 5 based on severity grade assignment as defined by the National Cancer Institute's Common Terminology Criteria for Adverse Events, version 5.0 (NCI CTCAE v5.0).
as §4

C=CC(=O)N1CCN2C(=O)c3cc(F)c(-c4ccc(F)c5sc(N)c(C#N)c45)c(Cl)c3OCC[C@H]2C1 (single isomer, unassigned) [Formula I]
tumor growth inhibition (%) or regression (− %) (KYSE-410; 10 mg/kg BID x28): 51.5% | tumor growth inhibition (%) or regression (− %) (KYSE-410; 10 mg/kg QD x28): 25.3% | tumor growth inhibition (%) or regression (− %) (KYSE-410; 30 mg/kg BID x28): 61.8% | tumor growth inhibition (%) or regression (− %) (KYSE-410; 30 mg/kg QD x28): 66.7% | tumor growth inhibition (%) or regression (− %) (HCC44; 5 mg/kg BID x28): 57.5% | tumor growth inhibition (%) or regression (− %) (HCC44; 5 mg/kg QD x28): 28.3% | tumor growth inhibition (%) or regression (− %) (HCC44; 10 mg/kg BID x28): 61.8% | tumor growth inhibition (%) or regression (− %) (HCC44; 10 mg/kg QD x28): 32.7% | tumor growth inhibition (%) or regression (− %) (HCC44; 30 mg/kg BID x28): 84.1% | tumor growth inhibition (%) or regression (− %) (HCC44; 30 mg/kg QD x28): 77% | DLT ([1]; 100 mg BID): One DLT, a grade 3 ALT/AST ratio increase | permanent discontinuation due to TRAEs ([1]; in vivo): No Phase 1b Cohort C2 patient permanently discontinued | DLTs ([2]; as of January 2023): No DLTs were observed | MTD ([2]; as of January 2023): MTD was not reached | patients with a grade 3 or greater TEAE ([2]; as of January 2023): four | patients with dose reduction due to TRAE ([2]; as of January 2023): one | patients with permanent discontinuation due to TRAE ([2]; as of January 2023): one | TRAE grade in seven patients who discontinued a prior KRAS G12C inhibitor due to toxicity ([2]; in vivo): ≤ 2 grade | median time to response ([2]; in vivo): 1.4 month | tumor growth inhibition (%) or regression (− %) (MiaPaca-2; 5 mg/kg BID x28): −36.1% | tumor growth inhibition (%) or regression (− %) (MiaPaca-2; 5 mg/kg QD x28): 81.7% | tumor growth inhibition (%) or regression (− %) (MiaPaca-2; 10 mg/kg BID x28): −45.2% | tumor growth inhibition (%) or regression (− %) (MiaPaca-2; 10 mg/kg QD x28): −27% | tumor growth inhibition (%) or regression (− %) (MiaPaca-2; 30 mg/kg BID x28): −43.6% | tumor growth inhibition (%) or regression (− %) (MiaPaca-2; 30 mg/kg QD x28): −42% | tolerability [3]: well tolerated | tumor growth inhibition (%) or regression (− %) (SW1463; 5 mg/kg BID x28): 48.8% | tumor growth inhibition (%) or regression (− %) (SW1463; 5 mg/kg QD x28): 52.5% | tumor growth inhibition (%) or regression (− %) (SW1463; 10 mg/kg BID x28): 79.5% | tumor growth inhibition (%) or regression (− %) (SW1463; 10 mg/kg QD x28): 78.3% | tumor growth inhibition (%) or regression (− %) (SW1463; 30 mg/kg BID x28): 98.8% | tumor growth inhibition (%) or regression (− %) (SW1463; 30 mg/kg QD x28): 89.8% | % Regression (Day 12) (H358 lung tumor cells; 30 mg/kg PO, BID): −72.14% | % Regression (Day 26) (H358 lung tumor cells; 30 mg/kg PO, BID): −67.68% | % tumor regression (H358 lung tumor cells; 30 mg/kg twice daily): −67.68 to −72.14% | animal body weight loss (H358 lung tumor cells; through the whole study): No significant animal body weight loss | tumor growth inhibition (%) or regression (− %) (H1373; 5 mg/kg BID x28): −26.3% | tumor growth inhibition (%) or regression (− %) (H1373; 5 mg/kg QD x28): 97.9% | tumor growth inhibition (%) or regression (− %) (H1373; 10 mg/kg BID x28): −49% | tumor growth inhibition (%) or regression (− %) (H1373; 10 mg/kg QD x28): −21.3% | tumor growth inhibition (%) or regression (− %) (H1373; 30 mg/kg QD x28): −49.7% | tumor growth inhibition (%) or regression (− %) (UM-UC-3; 5 mg/kg BID x28): 45.3% | tumor growth inhibition (%) or regression (− %) (UM-UC-3; 5 mg/kg QD x28): 34.3% | tumor growth inhibition (%) or regression (− %) (UM-UC-3; 10 mg/kg BID x28): 75% | tumor growth inhibition (%) or regression (− %) (UM-UC-3; 10 mg/kg QD x28): 33.6% | tumor growth inhibition (%) or regression (− %) (UM-UC-3; 30 mg/kg BID x28): 85% | tumor growth inhibition (%) or regression (− %) (UM-UC-3; 30 mg/kg QD x28): 83.1% | discontinuation due to TRAE ([4]; 50 mg BID): one | rate of immune-related AEs, including hepatoxicity ([4]; 50 mg BID and 100 mg BID): low rate of immune-related AEs | dose reductions ([4]; 50 mg and 100 mg BID): no dose reductions

Source: patent US20240108618A1, “KRAS G12C INHIBITOR DOSING REGIMENS” (Eli Lilly and Company, priority 2022, published 2024)
